Source: publication PMC8062851, “2-Methoxyestradiol and its derivatives inhibit store-operated Ca^2+ entry in T cells: Identification of a new and potent inhibitor” (Biochimica et Biophysica Acta. Molecular Cell Research, 2021)
“Also recorded” adds a separate entry of the source.

Experiments:
ORAI1 = target: T1, ORAI1 (Homo sapiens, UniProt Q96D31); experiment: Live cell Ca2+ imaging of G-GECO1.2-ORAI1 transfected Jurkat T cells; assay type: cell-based; conditions: 10 μM
T1 construct: host or cells: Jurkat T-lymphocytes (electroporation)
Procedure: 12.5 ∗ 10^6 Jurkat T–lymphocytes were pelleted at 400 to 450 ×g for 5 min at room temperature and pellets were dissolved in 500 μl RPMI 1640 medium (Gibco) without phenol red containing L-glutamine, supplemented with 7.5% (v/v) NCS. 30 μg plasmid-DNA (G-GECO1.2-ORAI1) was transferred into a 4 mm electroporation cuvette (Biozym, Austria) and the Jurkat T-lymphocytes were added. G-GECO1.2-ORAI1 was a gift from Michael Cahalan, USA (Addgene plasmid # 73562). After an incubation of 5 min at 37 °C, cells were electroporated with 960 μF and 240 V (τ: […]). […]
17 to 22 h after electroporation, 5 ∗ 10^4 cells were pelleted at 400–450 ×g for 5 min at room temperature and cell pellets were dissolved in 50 μl nominal Ca^2+ free buffer. […] The fluorophore was excited at 488 nm every 2 s for 30 min and fluorescence was measured at 520 nm using Volocity (Version 6.3, Perkin Elmer).
Using ImageJ (Version 1.51 k, National Institutes of Health, USA) the pictures were analyzed for mean fluorescence in the outer ring of Jurkat T-lymphocytes employing ring-shaped regions of interest (ROIs). […] The mean background fluorescence values were subtracted from the signal in every image. For quantitative analysis, fluorescence intensities were normalized to the first fluorescence intensity (F/F0).

SERCA pumps = experiment: SERCA activity (ATP-induced Ca2+ reuptake) in permeabilized Jurkat T cells; assay type: cell-based, human
Procedure: 3 ∗ 10^7 Jurkat T-lymphocytes per measurement were centrifuged at 450 ×g for 5 min at room temperature. The pellet was rinsed twice, each time using 10 ml permeabilization buffer 1 (120 mM KCl, 10 mM NaCl, 1.2 mM MgCl2, 0.533 mM CaCl2, 1 mM EGTA and 10 mM HEPES, pH 7.2 (KOH), sterile filtered). Subsequently, the pellet was resuspended in 2 ml permeabilization buffer 1 containing 80 μg/ml saponin (Fluka) and the cells were incubated for 10 min at 37 °C. Subsequently, the cells were centrifuged at 450 ×g for 5 min at room temperature and the cell pellet was washed once in 10 ml permeabilization buffer 2 (120 mM KCl, 10 mM NaCl, 1.2 mM MgCl2 and 10 mM HEPES, pH 7.2 (KOH), sterile filtered). Finally, the cells were taken up in 1 ml permeabilization buffer 2, placed into a cuvette and measured at the fluorescence spectrophotometer. Before the start of the measurement, 0.5 μl of 1 mM Fura2 free acid (dissolved in pure water, final concentration: 0.5 μM), 5 μl of 5 mg/ml creatinkinase (dissolved in permeabilization buffer 2, final concentration: 25 μg/ml, 20 U/ml, Roche) and 10 μl of 2 M creatin phosphate (dissolved in permeabilization buffer 2, final concentration: 20 mM, Calbiochem) were added. Fura2 was used to measure the Ca^2+ concentration and creatinkinase and creatin phosphate were used as ATP-regenerating system. The measurement was controlled by FL Solutions (Version 4.1, Hitachi High-Technologies Corporation). Fura2 was alternatively excited every 2 s at 340 ± 5 nm and 380 ± 5 nm, each 400 ms apart. Fluorescence intensity was measured at an emission wavelength of 495 ± 5 nm for both excitation wavelengths. […] Ca^2+ concentrations were calculated according to Grynkiewicz et al. as described earlier in Section 2.4.
As a quantitative read-out for inhibition of IP3 receptors, the peak [Ca^2+] after IP3 addition was subtracted from the mean [Ca^2+] between 25 and 75 s before IP3 addition (dPeak). […] The rate constant K of the fitted data was used as a quantitative read-out for SERCA pump activity and its inhibition.

KV channels = target: T2, KV channels (Homo sapiens, UniProt P22001); experiment: Whole-cell patch clamp of KV channels in Jurkat T cells; assay type: cell-based; conditions: STX564 at 10 μM
T2 construct: About 10^5 Jurkat T-lymphocytes were placed into this recording chamber; endogenous in cells; host or cells: Jurkat T-lymphocytes (whole-cell patch clamp)

TMBP cells = experiment: In vitro activation of TMBP cells by MBP, CD25 surface expression by flow cytometry; assay type: cell-based, rat
Procedure: In vitro activation assays were performed in 96-well plates. […]. TMBP cell activation on mRNA level was determined using qPCR and on surface protein level using surface marker staining and subsequent flow cytometry analysis.
To assess in vitro T cell activation, surface staining for CD25 (OX39, Bio-Rad) was performed. APC-labelled goat anti-mouse antibody (Jackson ImmunoResearch) was used as secondary antibody. Mouse IgG1κ (MOPC 31C, Sigma-Aldrich) was used as control.
Cytofluorometric analysis was carried out with a CytoFLEX S (Beckman Coulter) operated by CytExpert software (Beckman Coulter). All procedures were performed at 4 °C. Data were analyzed by using FlowJo software (FlowJo, LLC).

human PBMCs = experiment: In vitro activation of human PBMCs by anti-CD3, interferon-γ mRNA by qPCR; assay type: cell-based; conditions: human PBMC; anti-CD3 stimulation; 24 h; qPCR
Procedure: In vitro activation assays were performed in 96-well plates. Briefly, 10^5 PBMCs isolated from human peripheral blood by Ficoll gradient were added onto plates coated with anti-human CD3 monoclonal antibody (5 μg ml^−1 in PBS, clone OKT3, Biolegend). 2ME2 or STX564 dissolved in DMSO were added in varying concentrations (0.01, 0.1, 1, 10 μM). […]. PBMC activation on mRNA level was determined using qPCR on samples collected 24 h after CD3 stimulation.
Total RNA was isolated using the standard TRIzol method. cDNA was synthesized using the RevertAid First Strand cDNA Synthesis Kit (Thermo Fisher Scientific). Quantitative PCR (qPCR) was performed using the StepOnePlus™ Real-Time PCR System (Applied Biosystems), as previously described [[23], [24], [25]]. Rat TMBP cell data were obtained from three to four independent duplicate measurements. β-actin served as housekeeping gene. Human PBMC data were obtained from two independent healthy donors and duplicate measurements (representative data of one donor are shown). HPRT served as housekeeping gene. For all probes (TaqMan), a combination of 5′-FAM and 3′-TAMRA quencher was used as described.

T2 sequence (P22001 whole entry): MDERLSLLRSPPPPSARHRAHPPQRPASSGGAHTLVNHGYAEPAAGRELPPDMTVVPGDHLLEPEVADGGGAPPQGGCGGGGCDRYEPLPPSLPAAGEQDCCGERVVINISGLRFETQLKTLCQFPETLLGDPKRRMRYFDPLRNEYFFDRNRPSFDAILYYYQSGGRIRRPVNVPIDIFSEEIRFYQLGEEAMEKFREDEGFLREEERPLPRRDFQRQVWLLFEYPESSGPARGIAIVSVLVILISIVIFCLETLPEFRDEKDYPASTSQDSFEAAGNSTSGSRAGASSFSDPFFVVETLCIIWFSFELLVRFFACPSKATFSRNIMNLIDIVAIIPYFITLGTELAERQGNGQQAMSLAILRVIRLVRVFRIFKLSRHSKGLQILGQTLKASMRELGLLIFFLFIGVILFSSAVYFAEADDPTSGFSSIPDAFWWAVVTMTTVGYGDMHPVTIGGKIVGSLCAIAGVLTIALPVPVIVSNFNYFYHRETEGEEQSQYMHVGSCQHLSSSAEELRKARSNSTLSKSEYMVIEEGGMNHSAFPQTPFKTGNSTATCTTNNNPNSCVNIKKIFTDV
T1 sequence (Q96D31 whole entry): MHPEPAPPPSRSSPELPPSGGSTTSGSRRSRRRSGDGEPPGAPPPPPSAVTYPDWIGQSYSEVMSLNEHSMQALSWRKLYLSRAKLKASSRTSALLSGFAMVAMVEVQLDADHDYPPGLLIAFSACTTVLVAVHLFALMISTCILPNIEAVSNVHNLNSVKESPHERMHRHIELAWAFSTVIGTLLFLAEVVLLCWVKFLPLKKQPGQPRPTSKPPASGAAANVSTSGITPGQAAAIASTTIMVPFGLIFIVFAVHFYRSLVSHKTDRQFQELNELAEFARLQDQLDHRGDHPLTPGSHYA

Structure (SMILES): CCc1cc2c(cc1OS(N)(=O)=O)CC[C@@H]1[C@@H]2CC[C@]2(C)[C@@H](CC#N)CC[C@@H]12 [STX564, 2-ethyl-3-sulfamoyloxy-17β-cyanomethylestra-1,3,5(10)-triene]
- SOCE by ORAI1 (G-GECO1.2-ORAI1 fluorescence) (ORAI1): almost completely diminished
- effect on SERCA activity (initial slope of [Ca2+] upon ATP addition) (SERCA pumps): Neither STX564, Synta66 nor vehicle DMSO affected ATP-induced Ca^2+ reuptake by SERCA pumps; also recorded: neither STX564 nor Synta66 showed any effect
- effect on KV channel currents (KV channels): does not inhibit KV channels; also recorded: no inhibition; also recorded: does not inhibit the KV1.3 channel
- concentration at which up-regulation of CD25 was significantly reduced (TMBP cells): ≥ 0.1 µM
- concentration at which antagonist effects on interferon-γ expression were observed (human PBMCs): ≥ 1 µM
